In patent US20240351997A1, “NOVEL PARP7 INHIBITOR AND USE THEREOF” (SHANGHAI QILU PHARMACEUTICAL RESEARCH AND DEVELOPMENT …, priority 2021, published 2024):

biological target: PARP7 (Homo sapiens (Human), UniProt Q7Z3E1); assay: In vitro enzymology experiment of PARP7 (enzymatic inhibition); assay type: biochemical
Method: II. In Vitro Enzymology Experiment of PARP2, 3, 5A, 5B, 7, 12, and 15
1. Preparation of 384-well histone-coated plate: 25 μL of histone solution was added to each well, and the plate was incubated overnight at 4° C.
2. Preparation of PBST buffer, blocking buffer, and assay buffer
3. The 384-well histone-coated plate was washed three times with PBST buffer. The plate was blocked by 50 μL of blocking buffer for 1 hour at room temperature. The plate was then washed three times with PBST buffer.
2000× compound was prepared in a 96-well source plate. 50 nL of the compound was transferred from the source plate to a 96-well intermediate plate, and 39.95 μL of assay buffer was added to each well. The plate was shaken well and centrifuged at 1000 rpm for 1 minute.
5 μL of compound DMSO solution was transferred to each well.
An enzyme mixture was incubated at 25° C. for 10 minutes.
10 μL of the enzyme mixture was added, and incubated with the compound at room temperature for 10 minutes.
10 μL of assay buffer was added to the negative control well of the assay plate.
The plate was then washed three times with PBST buffer.
25 μL of Stre-HRP was added.
The plate was incubated at room temperature for 1 hour and washed three times with PBS buffer.
25 μL of QuantaRed Enhancer mix was added. The plate was incubated for 10 minutes.
2.5 μL of QuantaRed Stop Solution was added to terminate the peroxidase reaction, and the plate was shaken for 10 to 30 seconds.
7. Paradigm was used to read the plate immediately to detect the readings at Ex550/Em620.
Using equation (1) to fit the data in Excel to obtain inhibition values
Using equation (2) to fit the data in XL-Fit to obtain IC50 values
Y is the percentage of inhibition, and X is the compound concentration.

Chain of PARP7 (Q7Z3E1 whole entry): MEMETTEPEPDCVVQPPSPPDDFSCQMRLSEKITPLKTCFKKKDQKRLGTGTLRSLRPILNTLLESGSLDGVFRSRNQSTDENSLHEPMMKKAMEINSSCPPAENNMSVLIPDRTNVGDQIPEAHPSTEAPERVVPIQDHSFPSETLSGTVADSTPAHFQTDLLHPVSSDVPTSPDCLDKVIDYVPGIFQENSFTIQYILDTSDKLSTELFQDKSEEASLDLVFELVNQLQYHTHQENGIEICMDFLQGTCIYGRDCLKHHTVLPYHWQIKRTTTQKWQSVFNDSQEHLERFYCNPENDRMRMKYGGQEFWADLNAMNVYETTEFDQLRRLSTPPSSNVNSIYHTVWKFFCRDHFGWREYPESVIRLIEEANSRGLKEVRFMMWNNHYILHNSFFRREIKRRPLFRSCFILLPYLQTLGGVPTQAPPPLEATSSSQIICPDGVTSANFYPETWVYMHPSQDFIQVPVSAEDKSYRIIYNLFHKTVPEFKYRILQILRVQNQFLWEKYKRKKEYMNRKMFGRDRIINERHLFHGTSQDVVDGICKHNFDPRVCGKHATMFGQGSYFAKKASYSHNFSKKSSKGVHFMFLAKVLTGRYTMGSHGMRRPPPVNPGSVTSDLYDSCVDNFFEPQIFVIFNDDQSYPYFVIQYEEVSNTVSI

| SMILES | IC50 |
| --- | --- |
| C[C@@H](Cc1c[nH]c(=O)c(C(F)(F)F)c1)OC(=O)N1CCN(c2ncc(C(F)(F)F)cn2)C[C@H]1CO [Example 79, (S)-1-(6-Oxo-5-(trifluoromethyl)-1,6-dihydropyridin-3-yl)propan-2-yl (S)-2-(hydroxymethyl)-4-(5-(trifluoromethyl)pyrimidin-2-yl)piperazine-1-carboxylate] | 0.68 nM |
| O=C(CCO[C@@H]1CCC[C@@H]1c1c[nH]c(=O)c(C(F)(F)F)c1)N1CCN(c2ncc(C(F)(F)F)cn2)CC1 [Example 47, 5-((1R,2R)-2-(3-Oxo-3-(4-(5-(trifluoromethyl)pyrimidin-2-yl)piperazin-1-yl)propoxy)cyclopentyl)-3-(trifluoromethyl)pyridin-2(1H)-one] | 7.22 nM |
| C[C@@H](Cc1c[nH]c(=O)c(C(F)(F)F)c1)OC(=O)N1CCN(c2ncc(C(F)(F)F)cn2)[C@@H](CO)C1 [Example 73, (S)-1-(6-Oxo-5-(trifluoromethyl)-1,6-dihydropyridin-3-yl)propan-2-yl (R)-3-(hydroxymethyl)-4-(5-(trifluoromethyl)pyrimidin-2-yl)piperazine-1-carboxylate] | 0.75 nM |
| Cc1cc(Cc2c[nH]c(=O)c(C(F)(F)F)c2)cc(C(=O)N2CCN(c3ncc(C(F)(F)F)cn3)CC2)c1 [Example 61, 5-(3-Methyl-5-(4-(5-(trifluoromethyl)pyrimidin-2-yl)piperazine-1-carbonyl)benzyl)-3-(trifluoromethyl)pyridin-2(1H)-one] | 0.72 nM |
| CC(Cc1c[nH]c(=O)c(C(F)(F)F)c1)OC(=O)N1CCN(c2ccc(C#N)cn2)CC1 (stereo not drawn) [Example 64, 1-(6-Oxo-5-(trifluoromethyl)-1,6-dihydropyridin-3-yl)propan-2-yl 4-(5-cyanopyridin-2-yl)piperazine-1-carboxylate] | 1.99 nM |
| C[C@@H](Cc1c[nH]c(=O)c(C(F)(F)F)c1)OC(=O)N1CC(Nc2ncc(C(F)(F)F)cn2)C1 [Example 54, (S)-1-(6-Oxo-5-(trifluoromethyl)-1,6-dihydropyridin-3-yl)propan-2-yl 3-((5-(trifluoromethyl)pyrimidin-2-yl)amino) azetidine-1-carboxylate] | 6.23 nM |
| O=C(Cc1cc(C(F)(F)F)c(=O)[nH]n1)NCC(=O)N1CCN(c2ncc(C(F)(F)F)cn2)CC1 [Example 5, N-(2-Oxo-2-(4-(5-(trifluoromethyl)pyrimidin-2-yl)piperazin-1-yl)ethyl)-2-(6-oxo-5-(trifluoromethyl)-1,6-dihydropyridazin-3-yl)acetamide] | 5.83 nM |
| O=C(CCc1c[nH]c(=O)c(C(F)(F)F)c1)N1CCN(c2ncc(C(F)(F)F)cn2)CC1 [Example 28, 5-(3-Oxo-3-(4-(5-(trifluoromethyl)pyrimidin-2-yl)piperazin-1-yl)propyl)-3-(trifluoromethyl)pyridin-2(1H)-one] | 0.9 nM |
| O=C(CCOC[C@@H]1CCCN1c1c[nH]c(=O)c(C(F)(F)F)c1)N1CCN(c2ncc(C(F)(F)F)cn2)CC1 [Example 9, (S)-5-(2-((3-Oxo-3-(4-(5-(trifluoromethyl)pyrimidin-2-yl)piperazin-1-yl)propoxy)methyl)pyrrolidin-1-yl)-3-(trifluoromethyl)pyridin-2(1H)-one] | 7.6 nM |
| O=C(OC[C@@H]1CCCN1c1c[nH]c(=O)c(C(F)(F)F)c1)N1CCN(c2ncc(C(F)(F)F)cn2)CC1 [Example 29, (S)-(1-(6-Oxo-5-(trifluoromethyl)-1,6-dihydropyridin-3-yl)pyrrolidin-2-yl)methyl 4-(5-(trifluoromethyl)pyrimidin-2-yl)piperazine-1-carboxylate] | 5.6 nM |
| C[C@@H](COC(=O)N1CCN(c2ncc(C(F)(F)F)cn2)CC1)c1c[nH]c(=O)c(C(F)(F)F)c1 [Example 27] | 1.1 nM |
| O=C(OC[C@H]1CCCN1c1c[nH]c(=O)c(C(F)(F)F)c1)N1CCN(c2ncc(C(F)(F)F)cn2)CC1 [Example 36, (R)-(1-(6-Oxo-5-(trifluoromethyl)-1,6-dihydropyridin-3-yl)pyrrolidin-2-yl)methyl 4-(5-(trifluoromethyl)pyrimidin-2-yl)piperazine-1-carboxylate] | 0.38 nM |

The remaining lines, values ahead:

| IC50 | SMILES |
| --- | --- |
| 0.86 nM | C[C@@H](Cc1c[nH]c(=O)c(C(F)(F)F)c1)OC(=O)N1CCN(c2ccc(C(F)(F)F)cc2)CC1 [Example 97, (S)-1-(6-Oxo-5-(trifluoromethyl)-1,6-dihydropyridin-3-yl)propan-2-yl 4-(4-(trifluoromethyl)phenyl)piperazine-1-carboxylate] |
| 0.9 nM | Cc1cnc(N2C[C@@H](C)N(C(=O)OCCc3c[nH]c(=O)c(C(F)(F)F)c3)C[C@@H]2C)nc1 [Example 168, 2-(6-Oxo-5-(trifluoromethyl)-1,6-dihydropyridin-3-yl)ethyl (2R,5S)-2,5-dimethyl-4-(5-methylpyrimidin-2-yl)piperazine-1-carboxylate] |
| 0.72 nM | O=C(Oc1cccc(-c2c[nH]c(=O)c(C(F)(F)F)c2)c1)N1CCN(c2ncc(C(F)(F)F)cn2)CC1 [Example 95, 3-(6-Oxo-5-(trifluoromethyl)-1,6-dihydropyridin-3-yl)phenyl 4-(5-(trifluoromethyl)pyrimidin-2-yl)piperazine-1-carboxylate] |
| 0.66 nM | CC(=O)c1cnc(N2CCN(C(=O)O[C@@H](C)Cc3c[nH]c(=O)c(C(F)(F)F)c3)CC2)nc1 [Example 120, (S)-1-(6-Oxo-5-(trifluoromethyl)-1,6-dihydropyridin-3-yl)propan-2-yl 4-(5-acetylpyrimidin-2-yl)piperazine-1-carboxylate] |
| 0.65 nM | C[C@H]1CN(C(=O)OCCc2c[nH]c(=O)c(C(F)(F)F)c2)CCN1c1ncc(C(F)(F)F)cn1 [Example 113, 2-(6-Oxo-5-(trifluoromethyl)-1,6-dihydropyridin-3-yl)ethyl (S)-3-methyl-4-(5-(trifluoromethyl)pyrimidin-2-yl)piperazine-1-carboxylate] |
| 0.53 nM | CC(C)(O)c1cnc(N2CCN(C(=O)OCCc3c[nH]c(=O)c(C(F)(F)F)c3)CC2)nc1 [Example 114, 2-(6-Oxo-5-(trifluoromethyl)-1,6-dihydropyridin-3-yl)ethyl 4-(5-(2-hydroxypropan-2-yl)pyrimidin-2-yl)piperazine-1-carboxylate] |
| 0.72 nM | O=C(OCCc1c[nH]c(=O)c(C(F)(F)F)c1)N1CCN(c2ncc(C(F)(F)F)cn2)C[C@@H]1CO [Example 107, 2-(6-Oxo-5-(trifluoromethyl)-1,6-dihydropyridin-3-yl)ethyl (R)-2-(hydroxymethyl)-4-(5-(trifluoromethyl)pyrimidin-2-yl)piperazine-1-carboxylate] |
| 1.5 nM | N#Cc1ccc(N2CCN(C(=O)OCCc3c[nH]c(=O)c(C(F)(F)F)c3)CC2)nc1 [Example 144, 2-(6-Oxo-5-(trifluoromethyl)-1,6-dihydropyridin-3-yl)ethyl 4-(5-cyanopyridin-2-yl)piperazine-1-carboxylate] |
| 0.54 nM | CC[C@H]1CN(c2ncc(C(F)(F)F)cn2)CCN1C(=O)OCCc1c[nH]c(=O)c(C(F)(F)F)c1 [Example 121, 2-(6-Oxo-5-(trifluoromethyl)-1,6-dihydropyridin-3-yl)ethyl (S)-2-ethyl-4-(5-(trifluoromethyl)pyrimidin-2-yl)piperazine-1-carboxylate] |
| 1.38 nM | CC(OC[C@@H]1CCCN1c1c[nH]c(=O)c(C(F)(F)F)c1)C(=O)N1CCN(c2ncc(C(F)(F)F)cn2)CC1 (stereo partly drawn) [Example 83] |
| 0.63 nM | C[C@H]1CN(c2ncc(C(F)(F)F)cn2)CCN1C(=O)OCCc1c[nH]c(=O)c(C(F)(F)F)c1 [Example 108, 2-(6-Oxo-5-(trifluoromethyl)-1,6-dihydropyridin-3-yl)ethyl (S)-2-methyl-4-(5-(trifluoromethyl)pyrimidin-2-yl)piperazine-1-carboxylate] |
| 1.8 nM | Cc1cc(OC(=O)N2CCN(c3ncc(C(F)(F)F)cn3)CC2)cc(-c2c[nH]c(=O)c(C(F)(F)F)c2)c1 [Example 138, 3-Methyl-5-(6-oxo-5-(trifluoromethyl)-1,6-dihydropyridin-3-yl)phenyl 4-(5-(trifluoromethyl)pyrimidin-2-yl)piperazine-1-carboxylate] |
| 0.6 nM | C[C@@H](Cc1c[nH]c(=O)c(C(F)(F)F)c1)OC(=O)N1CCN(c2ccc(C(F)(F)F)cn2)CC1 [Example 86, (S)-1-(6-Oxo-5-(trifluoromethyl)-1,6-dihydropyridin-3-yl)propan-2-yl 4-(5-(trifluoromethyl)pyridin-2-yl)piperazine-1-carboxylate] |
| 1 nM | C[C@@H]1CN(c2ncc(C3CC3)cn2)[C@H](C)CN1C(=O)O[C@@H](C)Cc1c[nH]c(=O)c(C(F)(F)F)c1 [Example 179, (S)-1-(6-Oxo-5-(trifluoromethyl)-1,6-dihydropyridin-3-yl)propan-2-yl (2R,5R)-4-(5-cyclopropylpyrimidin-2-yl)-2,5-dimethylpiperazine-1-carboxylate] |
| 1.4 nM | C[C@@H]1CN(C(=O)O[C@@H](C)Cc2c[nH]c(=O)c(C(F)(F)F)c2)[C@@H](C)CN1c1ncc(C2CC2)cn1 [Example 178, (S)-1-(6-Oxo-5-(trifluoromethyl)-1,6-dihydropyridin-3-yl)propan-2-yl (2S,5R)-4-(5-cyclopropylpyrimidin-2-yl)-2,5-dimethylpiperazine-1-carboxylate] |
